Measurements as given in the supplement of paper PMC10307832.

Columns and labels:
Experiment in all cases: relative viability (nuclei count vs DMSO), 5 days (fraction); higher = more cells survive
Erlotinib + Trametinib = compound: C#Cc1cccc(Nc2ncnc3cc(OCCOC)c(OCCOC)cc23)c1 [Erlotinib] + CC(=O)Nc1cccc(-n2c(=O)n(C3CC3)c(=O)c3c(Nc4ccc(I)cc4F)n(C)c(=O)c(C)c32)c1 [Trametinib] (partner 0.02 µM)
Summary of the method: (§1)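 Values are medians from duplicate plates. Each reflects relative viability, defined as the nuclei count of treated wells over that of vehicle wells. Lung cancer cell lines in 1536-well plates were pin-tool dosed one day after seeding with one drug alone or with a fixed anchor-drug dose plus five library-drug doses (not always all listed) in √10 steps, then fixed, stained and imaged at 4× after 5 days.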

Erlotinib + Tozasertib = compound: C#Cc1cccc(Nc2ncnc3cc(OCCOC)c(OCCOC)cc23)c1 [Erlotinib] + Cc1cc(Nc2cc(N3CCN(C)CC3)nc(Sc3ccc(NC(=O)C4CC4)cc3)n2)n[nH]1 [Tozasertib] (partner 0.1 µM)
Summary of the method: as §1

Erlotinib + Vorinostat = compound: C#Cc1cccc(Nc2ncnc3cc(OCCOC)c(OCCOC)cc23)c1 [Erlotinib] + O=C(CCCCCCC(=O)Nc1ccccc1)NO [Vorinostat] (partner 1 µM)
Summary of the method: as §1

Erlotinib + Lapatinib = compound: C#Cc1cccc(Nc2ncnc3cc(OCCOC)c(OCCOC)cc23)c1 [Erlotinib] + CS(=O)(=O)CCNCc1ccc(-c2ccc3ncnc(Nc4ccc(OCc5cccc(F)c5)c(Cl)c4)c3c2)o1 [Lapatinib] (partner 2 µM)
Summary of the method: as §1

AT9283 + Navitoclax = compound: O=C(Nc1c[nH]nc1-c1nc2ccc(CN3CCOCC3)cc2[nH]1)NC1CC1 [AT9283] + CC1(C)CCC(c2ccc(Cl)cc2)=C(CN2CCN(c3ccc(C(=O)NS(=O)(=O)c4ccc(N[C@H](CCN5CCOCC5)CSc5ccccc5)c(S(=O)(=O)C(F)(F)F)c4)cc3)CC2)C1 [Navitoclax] (partner 0.5 µM)
Summary of the method: as §1

LCLC-103H
relative viability (Erlotinib + Trametinib; first compound 0.02 µM): 0.727
relative viability (Erlotinib + Trametinib; first compound 0.2 µM): 0.636
relative viability (Erlotinib + Trametinib; first compound 0.6325 µM): 0.661
relative viability (Erlotinib + Trametinib; first compound 2 µM): 0.62
relative viability (Erlotinib + Tozasertib; first compound 0.02 µM): 0.434
relative viability (Erlotinib + Tozasertib; first compound 0.2 µM): 0.48
relative viability (Erlotinib + Tozasertib; first compound 0.6325 µM): 0.595
relative viability (Erlotinib + Tozasertib; first compound 2 µM): 0.313
relative viability (Erlotinib + Vorinostat; first compound 0.02 µM): 0.837
relative viability (Erlotinib + Vorinostat; first compound 0.2 µM): 0.732
relative viability (Erlotinib + Vorinostat; first compound 0.6325 µM): 0.796
relative viability (Erlotinib + Vorinostat; first compound 2 µM): 0.685

NCI-H358
relative viability (Erlotinib + Trametinib; first compound 0.02 µM): 0.143
relative viability (Erlotinib + Trametinib; first compound 0.2 µM): 0.114
relative viability (Erlotinib + Trametinib; first compound 0.6325 µM): 0.12
relative viability (Erlotinib + Trametinib; first compound 2 µM): 0.105
relative viability (Erlotinib + Lapatinib; first compound 0.02 µM): 0.379
relative viability (Erlotinib + Lapatinib; first compound 0.2 µM): 0.421
relative viability (Erlotinib + Lapatinib; first compound 0.6325 µM): 0.519
relative viability (Erlotinib + Lapatinib; first compound 2 µM): 0.452
relative viability (Erlotinib + Tozasertib; first compound 0.02 µM): 0.0843
relative viability (Erlotinib + Tozasertib; first compound 0.2 µM): 0.111
relative viability (Erlotinib + Tozasertib; first compound 0.6325 µM): 0.0963
relative viability (Erlotinib + Tozasertib; first compound 2 µM): 0.0822
relative viability (Erlotinib + Vorinostat; first compound 0.02 µM): 0.693
relative viability (Erlotinib + Vorinostat; first compound 0.2 µM): 0.292
relative viability (Erlotinib + Vorinostat; first compound 0.6325 µM): 0.419
relative viability (Erlotinib + Vorinostat; first compound 2 µM): 0.221

NCI-H522
relative viability (Erlotinib + Trametinib; first compound 0.02 µM): 0.665
relative viability (Erlotinib + Trametinib; first compound 0.2 µM): 0.697
relative viability (Erlotinib + Trametinib; first compound 0.6325 µM): 0.705
relative viability (Erlotinib + Trametinib; first compound 2 µM): 0.676
relative viability (Erlotinib + Tozasertib; first compound 0.02 µM): 0.493
relative viability (Erlotinib + Tozasertib; first compound 0.2 µM): 0.573
relative viability (Erlotinib + Tozasertib; first compound 0.6325 µM): 0.508
relative viability (Erlotinib + Tozasertib; first compound 2 µM): 0.465
relative viability (Erlotinib + Vorinostat; first compound 0.02 µM): 0.949
relative viability (Erlotinib + Vorinostat; first compound 0.2 µM): 0.832
relative viability (Erlotinib + Vorinostat; first compound 0.6325 µM): 0.869
relative viability (Erlotinib + Vorinostat; first compound 2 µM): 0.762

NCI-H650
relative viability (Erlotinib + Trametinib; first compound 0.02 µM): 0.964
relative viability (Erlotinib + Trametinib; first compound 0.2 µM): 0.985
relative viability (Erlotinib + Trametinib; first compound 0.6325 µM): 0.919
relative viability (Erlotinib + Trametinib; first compound 2 µM): 0.963
relative viability (Erlotinib + Lapatinib; first compound 0.02 µM): 0.754
relative viability (Erlotinib + Lapatinib; first compound 0.2 µM): 1.08
relative viability (Erlotinib + Lapatinib; first compound 0.6325 µM): 1.14
relative viability (Erlotinib + Lapatinib; first compound 2 µM): 0.744
relative viability (Erlotinib + Tozasertib; first compound 0.6325 µM): 0.767
relative viability (Erlotinib + Tozasertib; first compound 2 µM): 0.58
relative viability (Erlotinib + Vorinostat; first compound 0.02 µM): 0.487
relative viability (Erlotinib + Vorinostat; first compound 0.2 µM): 0.496
relative viability (Erlotinib + Vorinostat; first compound 0.6325 µM): 0.59
relative viability (Erlotinib + Vorinostat; first compound 2 µM): 0.449

NCI-H661
relative viability (Erlotinib + Trametinib; first compound 0.02 µM): 0.601
relative viability (Erlotinib + Trametinib; first compound 0.2 µM): 0.483
relative viability (Erlotinib + Trametinib; first compound 0.6325 µM): 0.593
relative viability (Erlotinib + Trametinib; first compound 2 µM): 0.457
relative viability (Erlotinib + Lapatinib; first compound 0.02 µM): 0.493
relative viability (Erlotinib + Lapatinib; first compound 0.2 µM): 0.41
relative viability (Erlotinib + Lapatinib; first compound 2 µM): 0.473
relative viability (Erlotinib + Tozasertib; first compound 0.02 µM): 0.344
relative viability (Erlotinib + Tozasertib; first compound 0.2 µM): 0.381
relative viability (Erlotinib + Tozasertib; first compound 0.6325 µM): 0.341
relative viability (Erlotinib + Tozasertib; first compound 2 µM): 0.394
relative viability (Erlotinib + Vorinostat; first compound 0.02 µM): 0.834
relative viability (Erlotinib + Vorinostat; first compound 0.2 µM): 0.758
relative viability (Erlotinib + Vorinostat; first compound 0.6325 µM): 0.775
relative viability (Erlotinib + Vorinostat; first compound 2 µM): 0.646

NCI-H1299
relative viability (AT9283 + Navitoclax; first compound 0.003 µM): 1.09
relative viability (AT9283 + Navitoclax; first compound 0.03 µM): 0.927
relative viability (AT9283 + Navitoclax; first compound 0.09487 µM): 0.363
relative viability (AT9283 + Navitoclax; first compound 0.3 µM): 0.304
relative viability (Erlotinib + Lapatinib; first compound 0.02 µM): 0.994
relative viability (Erlotinib + Lapatinib; first compound 0.2 µM): 0.995
relative viability (Erlotinib + Lapatinib; first compound 0.6325 µM): 0.904

NCI-H1563
relative viability (Erlotinib + Lapatinib; first compound 0.02 µM): 0.877
relative viability (Erlotinib + Lapatinib; first compound 0.2 µM): 0.851
relative viability (Erlotinib + Lapatinib; first compound 0.6325 µM): 0.843
relative viability (Erlotinib + Lapatinib; first compound 2 µM): 0.879

NCI-H1623
relative viability (Erlotinib + Tozasertib; first compound 0.02 µM): 0.437
relative viability (Erlotinib + Tozasertib; first compound 0.2 µM): 0.315
relative viability (Erlotinib + Tozasertib; first compound 0.6325 µM): 0.29
relative viability (Erlotinib + Tozasertib; first compound 2 µM): 0.209

NCI-H1648
relative viability (Erlotinib + Trametinib; first compound 0.02 µM): 0.5
relative viability (Erlotinib + Trametinib; first compound 0.2 µM): 0.313
relative viability (Erlotinib + Trametinib; first compound 0.6325 µM): 0.348
relative viability (Erlotinib + Trametinib; first compound 2 µM): 0.289
relative viability (Erlotinib + Tozasertib; first compound 0.02 µM): 0.489
relative viability (Erlotinib + Tozasertib; first compound 0.2 µM): 0.434
relative viability (Erlotinib + Tozasertib; first compound 0.6325 µM): 0.555
relative viability (Erlotinib + Tozasertib; first compound 2 µM): 0.252
relative viability (Erlotinib + Vorinostat; first compound 0.02 µM): 0.528
relative viability (Erlotinib + Vorinostat; first compound 0.2 µM): 0.304
relative viability (Erlotinib + Vorinostat; first compound 0.6325 µM): 0.501
relative viability (Erlotinib + Vorinostat; first compound 2 µM): 0.278

NCI-H1703
relative viability (AT9283 + Navitoclax; first compound 0.003 µM): 1.36
relative viability (AT9283 + Navitoclax; first compound 0.03 µM): 0.19
relative viability (AT9283 + Navitoclax; first compound 0.09487 µM): 0.216
relative viability (AT9283 + Navitoclax; first compound 0.3 µM): 0.176
relative viability (Erlotinib + Lapatinib; first compound 0.02 µM): 1.42
relative viability (Erlotinib + Lapatinib; first compound 0.6325 µM): 1.21
relative viability (Erlotinib + Lapatinib; first compound 2 µM): 0.992

NCI-H1792
relative viability (Erlotinib + Trametinib; first compound 0.02 µM): 0.435
relative viability (Erlotinib + Trametinib; first compound 0.2 µM): 0.423
relative viability (Erlotinib + Trametinib; first compound 0.6325 µM): 0.47
relative viability (Erlotinib + Trametinib; first compound 2 µM): 0.446
relative viability (AT9283 + Navitoclax; first compound 0.003 µM): 0.637
relative viability (AT9283 + Navitoclax; first compound 0.03 µM): 0.569
relative viability (AT9283 + Navitoclax; first compound 0.09487 µM): 0.248
relative viability (AT9283 + Navitoclax; first compound 0.3 µM): 0.187
relative viability (Erlotinib + Lapatinib; first compound 0.2 µM): 0.877
relative viability (Erlotinib + Lapatinib; first compound 0.6325 µM): 1.18
relative viability (Erlotinib + Lapatinib; first compound 2 µM): 0.842

NCI-H2342
relative viability (Erlotinib + Trametinib; first compound 0.02 µM): 1.14
relative viability (Erlotinib + Trametinib; first compound 0.2 µM): 0.814
relative viability (Erlotinib + Trametinib; first compound 0.6325 µM): 0.803
relative viability (Erlotinib + Trametinib; first compound 2 µM): 0.74
relative viability (Erlotinib + Tozasertib; first compound 0.02 µM): 0.444
relative viability (Erlotinib + Tozasertib; first compound 0.2 µM): 0.495
relative viability (Erlotinib + Tozasertib; first compound 0.6325 µM): 0.491
relative viability (Erlotinib + Tozasertib; first compound 2 µM): 0.361
relative viability (Erlotinib + Vorinostat; first compound 0.02 µM): 0.615
relative viability (Erlotinib + Vorinostat; first compound 0.2 µM): 0.851
relative viability (Erlotinib + Vorinostat; first compound 0.6325 µM): 0.801
relative viability (Erlotinib + Vorinostat; first compound 2 µM): 0.789

SW 900
relative viability (Erlotinib + Trametinib; first compound 0.02 µM): 0.867
relative viability (Erlotinib + Trametinib; first compound 0.2 µM): 0.761
relative viability (Erlotinib + Trametinib; first compound 0.6325 µM): 0.771
relative viability (Erlotinib + Trametinib; first compound 2 µM): 0.631
relative viability (Erlotinib + Tozasertib; first compound 0.02 µM): 0.514
relative viability (Erlotinib + Tozasertib; first compound 0.2 µM): 0.487
relative viability (Erlotinib + Tozasertib; first compound 0.6325 µM): 0.33
relative viability (Erlotinib + Tozasertib; first compound 2 µM): 0.257
relative viability (Erlotinib + Vorinostat; first compound 0.02 µM): 0.683
relative viability (Erlotinib + Vorinostat; first compound 0.2 µM): 0.439
relative viability (Erlotinib + Vorinostat; first compound 0.6325 µM): 0.523
relative viability (Erlotinib + Vorinostat; first compound 2 µM): 0.448
